{
  "source": "patent US12570698B2",
  "about": "“Stabilized peptides for covalent binding to target protein” (Dana-Farber Cancer Institute, Inc., priority 2015, dated 2026)",
  "key": {"Bfl-1 [1]": {"target": "T1, Bfl-1 (Homo sapiens, UniProt Q16548)", "T1 sequence (Q16548 1-175)": "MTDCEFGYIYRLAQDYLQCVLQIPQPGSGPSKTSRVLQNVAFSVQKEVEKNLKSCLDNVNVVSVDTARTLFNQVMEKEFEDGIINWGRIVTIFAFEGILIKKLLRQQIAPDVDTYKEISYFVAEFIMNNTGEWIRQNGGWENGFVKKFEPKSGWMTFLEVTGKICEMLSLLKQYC", "assay": "Bfl-1: Warhead SAHB conjugation assay", "format": "binding", "conditions": "warhead SAHBs, reducing conditions", "experimental": "Various warhead SAHBs were tested in conjugation assays with Bfl-1. For this series of peptides the warhead at position J was selected from those depicted below.\n10 μM Bfl-1 was reduced with DTT, then incubated with 3:1 molar ratio of warhead SAHB. Samples were then combined with loading dye, run on a 12% Bis-Tris SDS-PAGE, and stained with Coomassie. The same setup was used for all antiapoptotic proteins tested."}, "SK-MEL-2": {"system": "SK-MEL-2", "assay": "Cytotoxicity and caspase 3/7 activation", "format": "cell-based", "conditions": "BFL-1 expressing melanoma line; data not shown", "experimental": "(§1) Cell Viability, LDH Release, and Caspase-3/7 Activation Assays: Cancer cells were cultured using their standard culture media containing 10% FBS and penicillin/streptomycin (A375P: DMEM; SK-MEL-2, SK-MEL-28 and MCF-7: EMEM; A549, H929: RPMI). […] Cell viability and caspase 3/7 activation was measured using CellTiter-Glo and Caspase-Glo 3/7 chemiluminescence reagents (Promega), respectively, and luminescence detected by a microplate reader (Spectramax M5, Molecular Devices). LDH release was quantified after 30 min peptide incubation by plate centrifugation at 1500 rpm for 5 min at 4° C., transfer of 100 μL cell culture media to a clear plate (Corning), incubation with 100 μL LDH reagent (Roche) for 30 min while shaking, and measurement of absorbance at 490 nm on a Spectramax M5 microplate reader."}, "MCF7": {"system": "MCF7", "assay": "Cytotoxicity and caspase 3/7 activation", "format": "cell-based", "conditions": "non-melanoma line; data not shown", "experimental": "as §1"}, "H929": {"system": "H929", "assay": "Cytotoxicity and caspase 3/7 activation", "format": "cell-based", "conditions": "non-melanoma line; data not shown", "experimental": "as §1"}, "SK-MEL-28": {"system": "SK-MEL-28", "assay": "Cytotoxicity and caspase 3/7 activation", "format": "cell-based", "conditions": "BFL-1 expressing melanoma line; data not shown", "experimental": "as §1"}, "A549": {"system": "A549", "assay": "Cytotoxicity and caspase 3/7 activation", "format": "cell-based", "conditions": "non-melanoma line; data not shown", "experimental": "as §1"}, "A375P cells": {"system": "A375P cells", "assay": "Cell viability (CellTiter-Glo)", "format": "cell-based, human", "conditions": "40 μM, over time", "experimental": "We confirmed by LDH release assay that BIM SAHBs had no membranolytic effect on the cells (FIG. 16B). The observed cytotoxicity was instead consistent with mitochondrial apoptosis induction, as reflected by time-responsive caspase 3/7 activation (FIG. 16C) and mitochondrial cytochrome c release (FIG. 16D).\nas §1"}, "Bfl-1 [2]": {"target": "T1, Bfl-1", "assay": "Competitive binding assay after pre-forming the Bfl-1:NOXA disulfide bond", "conditions": "Bfl-1:NOXA disulfide bond pre-formed", "experimental": "The functional impact of the Bfl-1:NOXA disulfide bond formation was evaluated using competitive binding assays and liposomal release assays."}, "HA-BFL-1ΔC C4S/C19S": {"target": "T2, HA-BFL-1ΔC C4S/C19S (Homo sapiens, UniProt Q16548, C19S/C4S)", "T2 construct": "BFL-1ΔC (aa 1-153); expressed in transfected cells; host or cells: 293T cells, pCMV plasmid, transient", "T2 sequence (Q16548 1-153 C4S/C19S)": "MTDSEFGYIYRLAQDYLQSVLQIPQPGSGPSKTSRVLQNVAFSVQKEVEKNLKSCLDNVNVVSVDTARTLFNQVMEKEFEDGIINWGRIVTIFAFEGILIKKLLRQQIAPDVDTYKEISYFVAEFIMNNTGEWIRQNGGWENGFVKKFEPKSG", "assay": "Competition with tBID in 293T lysates (immunoprecipitation)", "format": "binding", "conditions": "5 μM biotinylated peptide, 0.25 μM tBID, 6 h RT", "experimental": "Protein concentration of the soluble fraction was measured using a BCA kit according to manufacturer's instructions (Thermo Scientific). […] After 24 h, cells were trypsinized, washed with PBS, lysed in 1% CHAPS buffer, and the supernatant collected for protein concentration determination by BCA kit. […] Cells were harvested and lysed as above, and incubated overnight with anti-HA agarose beads (Pierce). The beads were washed 3 times with lysis buffer, eluted by boiling in LDS buffer, and subjected to western analysis with HA and biotin antibodies. […] Biotin capture was accomplished by incubating the mixture with high-capacity SA agarose (Thermo Scientific) for 2 h at 4° C., followed by centrifugation and washing the pelleted beads with 3×1 mL lysis buffer."}, "MCL-1": {"target": "T3, MCL-1 (Homo sapiens, UniProt Q07820)", "T3 construct": "we incubated A375P lysates with the corresponding biotinylated BIM SAHBs; endogenous in cells; host or cells: A375P melanoma cell lysate", "assay": "SA pull-down from A375P lysates, MCL-1 western", "format": "binding", "conditions": "biotinylated SAHBs"}, "FLAG-MCL-1": {"target": "T4, FLAG-MCL-1 (Homo sapiens, UniProt Q07820)", "T4 construct": "expressed in transfected cells; host or cells: 293T cells, p3×FLAG-CMV-10 vector, transient", "assay": "Competition with tBID in 293T lysates (immunoprecipitation)", "format": "binding", "conditions": "5 μM biotinylated peptide, 0.25 μM tBID, 6 h RT", "experimental": "293T cells were maintained in DMEM containing 10% FBS and penicillin/streptomycin, and transfections performed with 2 μg pCMV plasmid containing HA-BFL-1ΔC C4S/C19S using X-tremeGENE 9 (Roche). For lysate experiments, cells were trypsinized 24 hours post-transfection, washed with PBS, and lysed by incubation with 1% CHAPS lysis buffer (150 mM NaCl, 50 mM Tris pH 7.4, 100 mM DTT). Protein concentration of the soluble fraction was measured using a BCA kit according to manufacturer's instructions (Thermo Scientific). […] Samples were then boiled in LDS buffer and subjected to western analysis using 1:1000 dilutions of HA (Sigma-Aldrich, #12CA5) and biotin (Abcam, #53494) antibodies. To evaluate the capacity of biotinylated SAHBs to compete with tBID for interactions with BFL-1 and MCL-1, 293T cells were transfected with either HA-BFL-1ΔC C4S/C19S or FLAG-MCL-1 in the p3×FLAG-CMV-10 vector (Sigma) as above. After 24 h, cells were trypsinized, washed with PBS, lysed in 1% CHAPS buffer, and the supernatant collected for protein concentration determination by BCA kit. […] The mixtures were then subjected to HA or FLAG (Sigma-Aldrich, F7425) immunoprecipitation, followed by western analysis using 1:1000 dilutions of HA, FLAG, biotin, and BID (Santa Cruz sc-11423) antibodies. […] Cells were harvested and lysed as above, and incubated overnight with anti-HA agarose beads (Pierce). […]"}},
  "note": "Bridge positions count the residues as written; N and C are the ends. Square brackets hold non-standard residues; d marks the D form. Ends that are not written are not given here. S5 = C=CCCC[C@](C)(N)C(=O)O",
  "data": [
    {"compound": "CN(C)C/C=C/C(=O)O", "note": "[trans-4-dimethylaminocrotonic acid]", "values": [
      {"measurement": "covalent binding efficiency", "setting": "Bfl-1 [1]", "value": "less efficient"}
    ]},
    {"compound": "O=C(O)[C@H]1CCCCN1", "note": "[D-homoproline]", "values": [
      {"measurement": "covalent binding efficiency", "setting": "Bfl-1 [1]", "value": "less efficient"}
    ]},
    {"compound": "C=CC(=O)N1CCC[C@@H](C(=O)N[C@H](C(=O)N[C@@H](C)C(=O)N[C@@H](CCC(N)=O)C(=O)N[C@@H](CCC(=O)O)C(=O)N[C@@H](CC(C)C)C(=O)N[C@@H](CCCNC(=N)N)C(=O)N[C@@]2(C)CCCC=CCCC[C@@](C)(C(=O)N[C@@H](Cc3ccccc3)C(=O)N[C@@H](CC(N)=O)C(=O)N[C@@H](C)C(=O)N[C@@H](Cc3ccc(O)cc3)C(=O)N[C@@H](Cc3ccc(O)cc3)C(=O)N[C@@H](C)C(=O)N[C@@H](CCCNC(=N)N)C(=O)N[C@@H](CCCNC(=N)N)C(N)=O)NC(=O)[C@H](CC(=O)O)NC(=O)CNC(=O)[C@H]([C@@H](C)CC)NC2=O)[C@@H](C)CC)C1", "note": "[BIM SAHBA-3]", "values": [
      {"measurement": "enhancement in cytotoxicity and caspase 3/7 activation", "setting": "SK-MEL-2", "value": "comparative enhancement in cytotoxicity and caspase 3/7 activation"},
      {"measurement": "enhancement in cytotoxicity and caspase 3/7 activation", "setting": "MCF7", "value": "no evidence of this phenomenon"},
      {"measurement": "enhancement in cytotoxicity and caspase 3/7 activation", "setting": "H929", "value": "no evidence of this phenomenon"},
      {"measurement": "enhancement in cytotoxicity and caspase 3/7 activation", "setting": "SK-MEL-28", "value": "comparative enhancement in cytotoxicity and caspase 3/7 activation"},
      {"measurement": "enhancement in cytotoxicity and caspase 3/7 activation", "setting": "A549", "value": "no evidence of this phenomenon"},
      {"measurement": "cytotoxicity compared to BIM SAHBA1", "setting": "A375P cells", "value": "significant enhancement in cytotoxicity over time"}
    ]},
    {"compound": "NOXA SAHBA C25S: NOXA SAHBA with C25S mutation; SEQ ID NO: 128 (AELEVESATQLR[S5]FGD[S5]LNFRQKLL; staple 13-17; not fully specified)", "values": [
      {"measurement": "availability of the Bfl-1 binding pocket to another FITC BH3 domain", "setting": "Bfl-1 [2]", "value": "abrogated these inhibitory effects"}
    ]},
    {"compound": "O=C(O)[C@@H]1CCCCN1", "note": "[L-homoproline]", "values": [
      {"measurement": "covalent binding efficiency", "setting": "Bfl-1 [1]", "value": "less efficient"}
    ]},
    {"compound": "BIM SAHBA: BIM SAHBA (aa 147-166), corresponding construct lacking the acrylamide-based warhead", "values": [
      {"measurement": "competition with tBID for HA-BFL-1 binding", "setting": "HA-BFL-1ΔC C4S/C19S", "value": "incapable of competing with tBID for HA-BFL-1 binding"},
      {"measurement": "binding to MCL-1", "setting": "MCL-1", "value": "equivalent binding to anti-apoptotic MCL-1"},
      {"measurement": "competition with tBID for FLAG-MCL-1", "setting": "FLAG-MCL-1", "value": "equally effective at competing with tBID"}
    ]}
  ]
}
